The values that follow come from patent publication US10195156B2, “Compounds and compositions for intracellular delivery of agents” (ModernaTX, Inc., priority 2015, dated 2019).

Molecules are shown by their SMILES.

The nature of series [1]: pKa of nanoparticle compositions. In kind it is physicochemical.
The nature of series [2]: Particle size and polydispersity index of nanoparticle compositions (Zetasizer Nano ZS). It counts as physicochemical. The settings on record: for particle size, rank within the named table (in words): comparison amongst compositions. The procedure:
A Zetasizer Nano ZS (Malvern Instruments Ltd, Malvern, Worcestershire, UK) can be used to determine the particle size, the polydispersity index (PDI) and the zeta potential of the nanoparticle compositions in 1×PBS in determining particle size and 15 mM PBS in determining zeta potential.

Series [3] relates to modified luciferase expression. Description: Expression of Luc in different organs (liver, lung, spleen, femur) 6 hours after intravenous administration. In kind it is in vivo. The settings on record: i.v., 0.5 mpk. The procedure:
The efficacy of the nanoparticle compositions presented in Tables 1, 1a, 17-1, 19-1, 20-1 and 21-1 was further evaluated by measuring the expression of modified luciferase in the liver, lung, spleen, and femur upon administration of a given composition. Formulations were administered intravenously to mice (n=3) at a dosage of 0.5 mpk and bioluminescence measured after 6 hours. The standard MC3 formulation and a PBS control were also tested.

Series [4] relates to IP-10. The series is described as follows: Cytokine production induced by sample formulations: IP-10. In kind it is in vivo. The settings on record: mice, i.v., 0.5 mpk, 6 hours, in pg/mL (unit assumed). An excerpt:
The introduction of foreign material into a mammalian body induces an innate immune response that promotes cytokine production. Such immune responses to, for example, nanoparticle compositions including therapeutic and/or prophylactic agents, are undesirable. The induction of certain cytokines is thus measured to evaluate the […] of nanoparticle compositions. The concentrations of various cytokines in mice upon intravenous administration of nanoparticle compositions presented in Tables 1, 1a, 17-1, 19-1, 20-1 and 21-1 at a dosage of 0.5 mpk was measured at 6 hours. The standard MC3 formulation and a PBS control were also tested.

Series [5] in a line: Encapsulation efficiency of RNA (QUANT-IT RIBOGREEN RNA assay). The settings on record: for encapsulation efficiency, rank within the named table (in words): comparison amongst compositions. In kind it is physicochemical. The procedure:
For nanoparticle compositions including an RNA, a QUANT-IT™ RIBOGREEN® RNA assay (Invitrogen Corporation Carlsbad, Calif.) can be used to evaluate the encapsulation of an RNA by the nanoparticle composition. The samples are diluted to a concentration of approximately 5 μg/mL in a TE buffer solution (10 mM Tris-HCl, 1 mM EDTA, pH 7.5). 50 μL of the diluted samples are transferred to a polystyrene 96 well plate and either 50 μL of TE buffer or 50 μL of a 2% Triton X-100 solution is added to the wells. The plate is incubated at a temperature of 37° C. for 15 minutes. The RIBOGREEN® reagent is diluted 1:100 in TE buffer, and 100 μL of this solution is added to each well. The fluorescence intensity can be measured using a fluorescence plate reader (Wallac Victor 1420 Multilablel Counter; Perkin Elmer, Waltham, Mass.) at an excitation wavelength of, for example, about 480 nm and an emission wavelength of, for example, about 520 nm. The fluorescence values of the reagent blank are subtracted from that of each of the samples and the percentage of free RNA is determined by dividing the fluorescence intensity of the intact sample (without addition of Triton X-100) by the fluorescence value of the disrupted sample (caused by the addition of Triton X-100).

In series [6] the test system is luciferase (Luc) mRNA expression. Description: Expression of Luc induced by sample formulations, whole-body bioluminescence after intravenous administration. It counts as in vivo. The settings on record: mice, i.v., 0.5 mg/kg; for total flux / Luc expression, rank within the named table (in words): each time point. As for the experimental part:
In order to monitor how effectively various nanoparticle compositions deliver therapeutic and/or prophylactic agents to targeted cells, different nanoparticle compositions including a particular therapeutic and/or prophylactic agent (for example, a modified or naturally occurring RNA such as an mRNA) are prepared and administered to rodent populations. Mice are intravenously, intramuscularly, intraarterially, or intratumorally administered a single dose including a nanoparticle composition with a formulation such as those provided in Table 1. In some instances, mice may be made to inhale doses. Dose sizes may range from 0.001 mg/kg to 10 mg/kg, where 10 mg/kg describes a dose including 10 mg of a therapeutic and/or prophylactic agent in a nanoparticle composition for each 1 kg of body mass of the mouse. A control composition including PBS may also be employed.
Upon administration of nanoparticle compositions to mice, dose delivery profiles, dose responses, and toxicity of particular formulations and doses thereof can be measured by enzyme-linked immunosorbent assays (ELISA), bioluminescent imaging, or other methods. For nanoparticle compositions including mRNA, time courses of protein expression can also be evaluated. Samples collected from the rodents for evaluation may include blood, sera, and tissue (for example, muscle tissue from the site of an intramuscular injection and internal tissue); sample collection may involve sacrifice of the animals.
The efficacy of the nanoparticle compositions presented in Tables 1, 1a, 17-1, 19-1, 20-1 and 21-1 was evaluated with a bioluminescence study. Formulations were administered intravenously to mice (n=6) at a dosage of 0.5 mg/kg (mpk) and bioluminescence measured at 3, 6, and 24 hour time points. The standard MC3 formulation and a PBS control were evaluated for comparison.

Setting [7] is: Table 1, * lipid:DSPC:Chol:PEG-DMG 50:10:38.5:1.5.
Where [8] appears, read: Table 20-1, rows without footnote mark.

In series [1] (setting [7]), `CCCCCCCCCCCCN(CCCCCCCCCCCC)CCN(CCCCCCCCCCCC)CCN1CCNCC1` [Compound 37, N^1,N^1,N^2-Tridodecyl-N^2-(2-(piperazin-1-yl)ethyl)ethane-1,2-diamine] yielded a pKa of 6.45. For the same compound, the “Size (nm)” value in series [2] (Table 1, * formulated with lipid:DSPC:Chol:PEG-DMG 50:10:38.5:1.5) amounted to 86.6 nm. The same compound gave a PDI in series [2] (setting [7]) of 0.107. In series [3] (Table 3, mice), the “Total Flux Liver” value came out at 1.92E+06 and the “Total Flux Lung” value was determined as 6.90E+05. In series [3] (Table 3, mice, spleen), the “Total Flux Spleen” value is on record as 9.75E+05. Also, the IP-10 in series [4] (Table 4) is given as 198. Further, in series [5] (setting [7]), the “EE (%)” value was found to be 99.9%. Moreover, in series [5], the “encapsulation efficiency, rank within the named table (in words)” value is reported as “highest”. In series [6] (Table 2), the “Total Flux 3 hours” value came out at 1.19E+07, the “Total Flux 6 hours” value turned out to be 6.66E+06 and the “Total Flux 24 hours” value was determined as 9.38E+05. For the same compound, the “total flux after 24 hours, rank within the named table (in words)” value in series [6] was “lowest flux after 24 hours”.

In series [1] (setting [8]), `CCCCCCCCCN(CCO)CCN(CCCCCCCCC)CCCCCCCCC` [Compound 20-16, 2-((2-(Dinonylamino)ethyl)(nonyl)amino)ethan-1-ol] came in with a pKa of 6.62. Moreover, in series [2] (setting [8]), the PDI came out at 0.225 and the “Size (nm)” value is given as 73.5 nm. Moreover, in series [3] (Table 20-3, mice), the “Total Flux Liver” value is 9.55E+04 and the “Total Flux Lung” value is on record as 1.44E+04. Moreover, the “Total Flux Spleen” value in series [3] (Table 20-3, mice, spleen) is 6.57E+04. Also, the “total flux in the liver, rank within the named table (in words)” value in series [3] (mice) is given as “lowest”. In addition, in series [4] (Table 20-4, formula (20-I)), the IP-10 was 395.7. Further, in series [5] (setting [8]), the “EE (%)” value was determined as 97.2%. Besides, in series [6] (Table 20-2), the “Total Flux 3 hours” value is on record as 7.88E+05, the “Total Flux 6 hours” value is recorded as 6.25E+05 and the “Total Flux 24 hours” value is 2.16E+05. Also, the “total flux after 24 hours, rank within the named table (in words)” value in series [6] is “lowest”.

Compound `CCCCCCCC/C=C\CCCCCCCCN(CCO)CCCCCCCC/C=C\CCCCCCCC` [Compound 17-8, 2-(Di((Z)-octadec-9-en-1-yl)amino)ethan-1-ol] showed a pKa in series [1] (Table 17-1) of 6.16. Further, in series [2] (Table 17-1), the PDI came to 0.20 and the “Size (nm)” value is recorded as 86.4 nm. In series [3] (Table 17-3, mice), the “Total Flux Liver” value was found to be 2.27E+08 and the “Total Flux Lung” value worked out at 6.11E+05. Further, the “Total Flux Spleen” value in series [3] (Table 17-3, mice, spleen) was found to be 4.25E+06. For the same compound, in series [3] (mice), the “total flux in the liver, rank within the named table (in words)” value is listed as “somewhat comparable to those including MC3”. Also, the “total flux in the spleen, rank within the named table (in words)” value in series [3] (mice, spleen) is reported as “highest”. The compound further came in with an IP-10 in series [4] (Table 17-4) of 135. Besides, the “EE (%)” value in series [5] (Table 17-1) stood at 96.9%. In series [5], the “encapsulation efficiency, rank within the named table (in words)” value was “comparable to that for MC3”. Besides, in series [6] (Table 17-2), the “Total Flux 3 hours” value was 1.02E+09, the “Total Flux 6 hours” value turned out to be 5.94E+08 and the “Total Flux 24 hours” value came to 3.79E+07. Moreover, the “total flux / Luc expression, rank within the named table (in words)” value (from here on “total flux / Luc expression”) in series [6] was “substantially higher flux than compositions including Compounds 17-2, 17-3, and 17-7”.

In the case of `CCCCC/C=C\C/C=C\CCCCCCCCC1(CCCCCCCC/C=C\C/C=C\CCCCC)CC(OC(=O)CCCN(C)C)C1` [Compound 21-2, 3,3-Di((9Z,12Z)-octadeca-9,12-dien-1-yl)cyclobutyl 4-(dimethylamino)butanoate], the pKa in series [1] (Table 21-1) came out at 6.98. In series [2] (Table 21-1), the PDI is recorded as 0.200 and the “Size (nm)” value is reported as 83.0 nm. Further, the “particle size, rank within the named table (in words)” value in series [2] is “smallest particles”. For the same compound, in series [3] (Table 21-3, mice), the “Total Flux Liver” value came out at 5.50E+07 and the “Total Flux Lung” value came out at 2.53E+05. Moreover, in series [3] (Table 21-3, mice, spleen), the “Total Flux Spleen” value amounted to 1.56E+07. For the same compound, in series [3] (mice, each organ or overall), the “total flux in organs, rank or organ comparison (in words)” value is listed as “lowest expression in each organ”. For the same compound, the “EE (%)” value in series [5] (Table 21-1) came out at 99.4%. Further, in series [6] (Table 21-2), the “Total Flux 3 hours” value stood at 5.99E+08, the “Total Flux 6 hours” value stood at 8.09E+08 and the “Total Flux 24 hours” value is on record as 8.09E+08. In addition, the “total flux / Luc expression” value in series [6] is “least expression at 3 and 6 hours”.

`CCCCCCCCCCCCN(CCCCCCCCCCCC)CCN1CCN(Cc2ccc(OC)cc2)CC1` [Compound 19-5, N-Dodecyl-N-(2-(4-(4-methoxybenzyl)piperazin-1-yl)ethyl)dodecan-1-amine] yielded a pKa in series [1] (Table 19-1) of 6.32. Besides, in series [2] (Table 19-1), the PDI is listed as 0.204 and the “Size (nm)” value was 106.9 nm. In series [3] (Table 19-3, mice), the “Total Flux Liver” value was 5.99E+06 and the “Total Flux Lung” value came to 3.46E+04. Also, the “Total Flux Spleen” value in series [3] (Table 19-3, mice, spleen) is on record as 2.10E+05. In series [5] (Table 19-1), the “EE (%)” value is recorded as 93.6%. Moreover, in series [6] (Table 19-2), the “Total Flux 3 hours” value is recorded as 2.37E+07, the “Total Flux 6 hours” value stood at 1.44E+07 and the “Total Flux 24 hours” value stood at 2.76E+06. The “total flux / Luc expression” value in series [6] is “next highest flux”.

In series [1] (Table 21-1), `CCCCC/C=C\C/C=C\CCCCCCCCC1(CCCCCCCC/C=C\C/C=C\CCCCC)CC1CN(C)C` (stereo not shown) [Compound 21-1, 1-(2,2-Di((9Z,12Z)-octadeca-9,12-dien-1-yl)cyclopropyl)-N,N-dimethylmethanamine] gave a pKa of 6.07. Further, in series [2] (Table 21-1), the PDI was 0.237 and the “Size (nm)” value is reported as 119.9 nm. In addition, in series [2], the “particle size, rank within the named table (in words)” value is “largest particles”. Besides, in series [3] (Table 21-3, mice), the “Total Flux Liver” value is recorded as 3.62E+08 and the “Total Flux Lung” value was 5.44E+05. Also, the “Total Flux Spleen” value in series [3] (Table 21-3, mice, spleen) is 3.27E+07. The “EE (%)” value in series [5] (Table 21-1) worked out at 98.4%. Besides, in series [6] (Table 21-2), the “Total Flux 3 hours” value turned out to be 3.66E+09, the “Total Flux 6 hours” value worked out at 4.19E+09 and the “Total Flux 24 hours” value is recorded as 4.19E+09.
